Laboratory results reported in patent publication US9556235B2, “F11 receptor (F11R) antagonists as therapeutic agents” (The Research Foundation for The State University of New York, priority 2003, dated 2017).
Entries after “also recorded” stand apart in the source; their conditions may differ.

Experiments:
[1] = tested on: human platelets; assay: Potentiation by M.Ab.F11 of ADP-induced platelet aggregation (sub-threshold M.Ab.F11 plus ADP); format: cell-based; settings: for inhibition of M.Ab.F11 plus ADP-induced platelet aggregation: M.Ab.F11 0.3 μg/ml, ADP 0.5 μM
Description: (§1) Whole blood was collected into the anticoagulant ACD (pH 4.6), as detailed (Kornecki et al. (1990) J. Biol. Chem., 265:10042-10048, incorporated herein by reference). Platelets were washed and isolated by differential centrifugation, and resuspended in a Tyrode-albumin (0.35%) solution buffered with 11.9 mM sodium bicarbonate (pH 7.35) in the presence of apyrase, heparin, and PGE1 (Id.). […] Platelet aggregation was measured in a Chronolog Whole Blood Lumi-Aggregometer (Chronolog Corp. Havertown, Pa.). […] The lowest concentration of each agonist which caused platelet aggregation was determined in these experiments for each donor on the day of blood collection.
Synthetic peptides according to published sequences of F11R were prepared.

[2] = tested on: human platelets; assay: Potentiation by M.Ab.F11 of collagen-induced platelet aggregation; format: cell-based
Description: as §1
However, the addition of sub-threshold amounts of collagen and M.Ab.F11 triggered a full-blown platelet aggregation.

[3] = tested on: platelets; assay: Platelet adhesion to immobilized M.Ab.F11 (BCA protein assay); format: cell-based, human; settings: for inhibition of the adhesion of platelets to immobilized M.Ab.F11: M.Ab.F11 150 ng/well; for inhibition in platelet adhesion assay (immobilized M.Ab.F11): FIG. 3 legend, concentration not given
Description: An adhesion assay, based on the determination of cell-derived protein using Bicinchoninic Acid (BCA) protein assay (Tuszynski et al. (1990) Anal. Biochem 184:189-191, incorporated herein by reference), was used for platelet adhesion to immobilized M.Ab.F11. Wells of a 96-well plate (Nunc-Immuno™ Plate, MaxiSorp™ Surface, flat bottomed) were incubated overnight at 4° C. with […] of a 1 mg/ml solution of M.Ab.F11. Wells were aspirated, washed, treated with TBS/1% BSA for 1 h at 37° C., and washed with TBS/0.1 mM MnCl2/0.1 mM CaCl2. Isolated platelet suspensions (100 μl) (3×10^8/ml) were added and plates were incubated at 37° C. for 90 min. Total platelet-associated protein was determined by dissolving the attached platelets directly with 100 μl BCA. Platelets were incubated at 37° C. for 2 h, and absorbance (595 nm) determined (Dynatech Laboratories, Chantilly, Va.).
The five peptides with sequences shown in Table 1 were tested also for their effects on the adhesion of platelets to immobilized M.Ab.F11 (applied at a concentration of 150 ng/well). […] Peptide 1 (SEQ ID NO: 1), added at 50 μM caused about 60% inhibition of the adhesion of platelets to immobilized M.Ab.F11, and with 500 μM of peptide 1 (SEQ ID NO: 1), about 70% inhibition was observed. Peptide 4 (SEQ ID NO: 4), at 50 μM, produced very little (10%) inhibition compared to peptide 1 (SEQ ID NO: 1) at similar concentrations. However, 500 μM of peptide 4 (SEQ ID NO: 4) produced approximately 70% inhibition in the adhesion of platelets to M.Ab.F11, similar to that observed with peptide 1 (SEQ ID NO: 1) at the same concentration.

[4] = tested on: apoE KO mice; assay: Plaque formation in animal model of atherosclerosis (apoE KO mice); format: in vivo; settings: for physical appearance of the animals (secondary consequences of atherosclerosis): 5 month period, Western-type diet, FIG. 7
Description: The results of an in-vivo study of the effects of F11R peptide 4D on plaque formation in an animal model of atherosclerosis (apoE knockout/KO mice) are discussed below. The atherosclerosis-prone apoE KO is a strain of mice that has been genetically engineered to develop cardiovascular disease. This genetic abnormality is manifested by the continuous development of atherosclerotic plaques from early age to adulthood, accompanied by deteriorating, sickly appearance.
The study was conducted on atherosclerosis prone apoE deficient (knock-out female mice of 6 weeks of age) of a C57BL/6 background. The mice were obtained from the Jackson Laboratory (Bar Harbor, Me.). Seven animals were injected daily with peptide 4D. In parallel, control groups, consisting of animals injected with water, the vehicle used to deliver peptide 4D, was maintained. All mice were fed a Western-type diet.
At pre-determined intervals of 3, 4 and 5 months of treatment, the aortae were dissected. Following the dissection of the aortae of all mice, morphometric analyses of lesion areas was performed on aortic arch sections stained with Harris hematoxylin-eosin. The total intimal lesion areas were quantified by taking the average of 6 sections spaced 30 μm apart, beginning at the base of the aortic root of each animal. Images were viewed and captured with a microscope (Nikon) equipped with a color video camera (Motic Images Plus 2.0) attached to a computerized imaging system with Image-J.
En face assays (to visualize the entire aorta) were conducted for comparison of the size and number of atherosclerotic plaques in treated and untreated animals using an Oil red O staining procedure, as shown in FIG. 9. […] FIG. 9B illustrates the differences in the number and size of plaques in animals following a 4-month period of injection with peptide 4D, comparing animals “P4, P5” treated with peptide 4D versus controls “H3, H4, H5”.
The proximal aortae of treated an untreated groups were also assessed by hematoxylin-eosin staining of the proximal aorta (root assay) for the size of the lesions/plaques and the necrotic core area within the proximal aorta. FIG. 10A illustrates the plaques and the size of the necrotic core area of animals treated or not treated with peptide 4D for a 3 month period.

[5] = tested on: human platelets; assay: M.Ab.F11-induced platelet aggregation; format: cell-based; settings: sF11R 1 μg/ml; M.Ab.F11 2.45 μg/ml; FIG. 1A
Description: as §1
The soluble polypeptide sF11R was tested in the platelet aggregation assay to determine its effect on the rate and extent of platelet aggregation.
The F11R/JAM-A receptor is constitutively expressed on the surface membrane of human platelets. Studies were carried out testing the effects of Fab fragments prepared from M.Ab.F11, i.e., on the M.Ab.F11-induced platelet aggregation that is triggered by M.Ab.F11 binding to F11R. It was determined that these Fab fragments interfered with the ability of the intact M.Ab.F11 antibody to activate platelets through the constitutively-expressed F11R.
As shown below, platelet aggregation was assayed in the presence of either 0.1 μg/ml (FIG. 4a), or 1.0 μg/ml (FIG. 4b). […]

[6] = peptide approximately 50-500 μM
[7] = collagen 0.5 μg/ml (sub-threshold), peptide concentration not given

With “EQDGSPPSEYTWFKD [peptide 5, F11R amino acids 128-142, control peptide]” the “inhibition of M.Ab.F11 plus ADP-induced platelet aggregation” value [1, 6] was “no inhibitory effects”, the “inhibition of M.Ab.F11 plus ADP-induced platelet aggregation” value ([1]; peptide approximately 50-500 μM, listed as SEQ ID NO: 5) was “do not inhibit aggregation” and the “block of potentiation by M.Ab.F11 of collagen-induced platelet aggregation” value (shortened to “block … of collagen-induced platelet aggregation”) [2, 7] was “did not inhibit platelet aggregation”. The “inhibition of the adhesion of platelets to immobilized M.Ab.F11” value (“inhibition of the adhesion of platelets” below) ([3]; peptide 500 μM) was “did not cause significant inhibition”.

For KSVTREDTGTYTC [peptide 4], the “inhibition of M.Ab.F11 plus ADP-induced platelet aggregation” value ([1]; peptide approximately 50 μM) was “completely block”, the “inhibition of M.Ab.F11 plus ADP-induced platelet aggregation” value ([1]; peptide approximately 50 μM, listed as Peptide 4) was “completely inhibited aggregation” and the “block … of collagen-induced platelet aggregation” value [2, 7] was “completely blocked”. For the same molecule, the “inhibition in platelet adhesion assay (immobilized M.Ab.F11)” value [3] was “inhibition”, the “inhibition of the adhesion of platelets” value ([3]; peptide 50 μM) was 10% and the “inhibition of the adhesion of platelets” value ([3]; peptide 500 μM) was “about 70%”.

“SVTVHSSEPEVRIPENNPVKLSC [peptide 1, N-terminal peptide of F11R, amino acids 1-23]” was tested, and the “inhibition of M.Ab.F11 plus ADP-induced platelet aggregation” value ([1]; peptide approximately 50 μM) was “completely inhibited”, the “inhibition of M.Ab.F11 plus ADP-induced platelet aggregation” value ([1]; peptide approximately 50 μM, listed as Peptide 1) was “completely inhibited platelet aggregation” and the “persistence of inhibition of M.Ab.F11 plus ADP-induced platelet aggregation” value ([1]; peptide approximately 50 μM, examined after a 12 h period) was “aggregation did not ensue”. The “block … of collagen-induced platelet aggregation” value [2, 7] was “completely blocked”, the “inhibition in platelet adhesion assay (immobilized M.Ab.F11)” value [3] was “inhibition” and the “inhibition of the adhesion of platelets” value ([3]; peptide 50 μM) was “about 60%”. For the same molecule, the “inhibition of the adhesion of platelets” value ([3]; peptide 500 μM) was “about 70%”.

In the case of “SYEDRVTFLPTGITFKSVTRED [peptide 2, F11R amino acids 55-76, control peptide]”, the “inhibition of M.Ab.F11 plus ADP-induced platelet aggregation” value [1, 6] is reported as “no inhibitory effects”, the “inhibition of M.Ab.F11 plus ADP-induced platelet aggregation” value ([1]; peptide approximately 50-500 μM, listed as SEQ ID NO: 2) is reported as “do not inhibit aggregation” and the “inhibition of the adhesion of platelets” value ([3]; peptide 500 μM) is reported as “did not cause significant inhibition”.

“WKFDQGDTTRLVEYNNKITASY [peptide 3, F11R amino acids 35-56, control peptide]” was tested, and the “inhibition of M.Ab.F11 plus ADP-induced platelet aggregation” value [1, 6] was “no inhibitory effects”, the “inhibition of M.Ab.F11 plus ADP-induced platelet aggregation” value ([1]; peptide approximately 50-500 μM, listed as SEQ ID NO: 3) was “do not inhibit aggregation” and the “block … of collagen-induced platelet aggregation” value [2, 7] was “did not inhibit platelet aggregation”. For the same molecule, the “inhibition of the adhesion of platelets” value ([3]; peptide 500 μM) was “did not cause significant inhibition”.

With dKSVTdREDTGTYTC-CONH2 [peptide 4D] the “size of the atherosclerotic plaques, en face assay (entire aorta, Oil red O)” value ([4]; 3, 4 and 5 month period of injection, FIG. 9D) was “decrease in the size of the atherosclerotic plaques”, the “size of the plaque/lesion areas, proximal aorta” value ([4]; 3, 4 and 5 months of injections) was “significant decreases” and the “size of the necrosis core area (NE) within the lesion” value ([4]; 3 month period of injection, FIG. 10C) was “significant decrease”. The “physical appearance of the animals (secondary consequences of atherosclerosis)” value ([4]; apoE KO mice, daily injection) was “prevented the degeneration of the animal's appearance”, the “physical appearance of the animals (secondary consequences of atherosclerosis)” value ([4]; apoE KO mice, daily injection, listed as F11R peptide 4D) was “diminishes the secondary consequences” and the “loss of hair, itching/scratching and lesions on the skin” value ([4]; apoE KO mice, daily injection, FIG. 7C-F) was “not observed”. For the same molecule, the “rate and extent of atherosclerotic plaque formation in major arterial blood vessels” value ([4]; apoE KO mice, summary of FIGS. 8-10) was “significantly decreases”, the “size of atherosclerotic plaques in the aortic arch” value ([4]; three, four and five months of injection, hematoxylin-eosin sections, FIG. 8) was “beneficial effects” and the “size of the lesion area, proximal aorta (root assay)” value ([4]; treated for 3 months, *P<0.05, FIG. 10B) was “significant decrease”.

B1: sF11R: secreted recombinant F11R, extracellular portion (amino acids ser-1 to asn-208), His tag, from COS-7 cells (protein)
chain: SVTVHSSEPEVRIPENNPVKLSCAYSGFSSPRVEWKFDQGDTTRLVCYNNKITASYEDRVTFLPTGITFKSVTREDTGTYTCMVSEEGGNSYGEVKVKLIVLVPPSKPTVNIPSSATIGNRAVLTCSEQDGSPPSEYTWFKDGIVMPTNPKSTRAFSNSSYVLNPTTGELVFDPLSASDTGEYSCEARNGYGTPMTSNAVRMEAVERN
modifications: left off: small tags and cut ends
notes: secreted recombinant F11R, extracellular portion (amino acids ser-1 to asn-208), His tag, from COS-7 cells
With B1 the “inhibition of M.Ab.F11-induced platelet aggregation” value [5] was “effectively inhibited; also recorded: Inhibition”, the “block of potentiation by M.Ab.F11 of ADP-induced platelet aggregation” value ([1]; sF11R 1 μg/ml) was “completely blocked” and the “block … of collagen-induced platelet aggregation” value ([2]; sF11R 1 μg/ml) was “completely blocked”.
